Test system: primary human AML cells
Assay: Primary screen: differentiation of primary human AML cells in vitro (CD34/CD15, HTS flow cytometry)
Details: for percent gated cells (viability): 2 μM (commercial libraries) or 1 μg/ml (IRIC); for % increase CD34+ (%) / % increase CD34+ (cell counts) / % increase CD34+CD15− (cell counts): compared to DMSO; for % increase CD34+CD15− (%): compared to DMSO ((compound − DMSO)/DMSO*100); for CD34+CD15− cell counts compared to DMSO: in words
Procedure: AML cells were thawed in 37° C. water bath and 1:10 diluted in prewarmed Iscove's modified Dulbecco's medium (IMDM) containing 20% FBS and DNase 100 μg/ml. […] When compounds were added to the culture medium, final DMSO concentrations were 0.1% in all in vitro experiments and 0.01% when cultured cells were transplanted into NSG-mice.
Compounds were tested at 2 μM (commercial libraries) or 1 μg/ml (Medicinal Chemistry Facility, IRIC). […] For validation experiments AML cells were grown in 384-well plates with 3-8 replicates per condition.
Flow cytometry was performed on an LSR™ II cytometer equipped with an HTS-device (BD Bioscience, Primary and Secondary screens and in vitro validation experiments) or on a BD Canto™ II cytometer (BD Bioscience, Xenotransplantation and CellTrace Violet™ experiments). Cells were stained for 30 minutes at 4° C. protected from light if not otherwise indicated (CellTrace Violet™ staining). […] CD34 intensities in flow cytometry plots were set at high levels on day 0 to allow tracing of non-predictable decreases of intensities during 7 days in culture.

| Compound | percent gated cells (viability) | % increase CD34+ (%) | % increase CD34+ (cell counts) | % increase CD34+CD15− (cell counts) | % increase CD34+CD15− (%) | CD34+CD15− cell counts compared to DMSO |
| --- | --- | --- | --- | --- | --- | --- |
| NC(=Nc1ccccc1)NC(=O)c1nc(Cl)c(N)nc1N [UM0120143, Phenamil methanesulfonate] | 84.10% | 30.88% | 28.04% | 54.83% | 58.21% |  |
| O=c1cc(-c2ccc(O)c(O)c2)oc2cc(O)cc(O)c12 [UM0118175, Luteolin] | 79.80% | 40.48% | 4.97% | 27.50% | 70.76% |  |
| N[C@@H](Cc1c[nH]c2ccccc12)C(=O)O [Tryptophan] |  |  |  |  |  | further reduced |
| 2′-beta-Dihydrochalcone [UM0120960] |  | 24.69% | 8.21% | 41.99% | 63.62% |  |
| COc1c(-c2ccccc2)oc2c(OC)cccc2c1=O [UM0121168, 3,8-Dimethoxyflavone] | 80.80% | 29.05% | 24.97% | 53.85% | 58.96% |  |
| COc1ccc(-c2cc(=O)c3ccc(O)cc3o2)cc1 [UM0117304, Pratol] | 82.40% | 50.40% | 31.59% | 47.36% | 68.85% |  |
| O=c1cc(-c2ccc(O)cc2)oc2cc(O)cc(O)c12 [UM0118614, Apigenin] |  | 20.12% | 22.02% | 66.30% | 63.93% |  |
| Verteporfin [UM0119121] |  | 15.38% | 33.14% | 58.17% | 37.29% |  |
| Oc1cc(O)cc(/C=C/c2ccccc2)c1 [UM0120964, Pinosylvin] | 69.90% | 24.20% | 8.62% | 39.69% | 59.46% |  |
| CC(C)Oc1ccc2c(=O)c(-c3ccccc3)coc2c1 [UM0120559, Ipriflavone] |  | 27.34% | 39.89% | 54.50% | 40.47% |  |
| C[C@]12CCC(=O)C=C1CC[C@@H]1[C@@H]2CC[C@]2(C)C(=O)CC[C@@H]12 [UM0119559, 4-Androstene-3,17-dione] | 82.30% | 1.57% | −20.76% | 20.14% | 53.81% |  |
| CC[C@H](C)C(=O)O[C@H]1C[C@@H](C)C=C2C=C[C@H](C)[C@H](CC[C@@H]3C[C@@H](O)CC(=O)O3)[C@H]21 [UM0118699, Lovastatin] | 81.00% | 1.88% | −14.30% | 36.94% | 62.41% |  |
| C[C@@H]1O[C@@H](O[C@H]2[C@H](Oc3cc(O)c4c(=O)c(O)c(-c5ccc(O)cc5)oc4c3)O[C@H](CO)[C@@H](O)[C@@H]2O)[C@H](O)[C@H](O)[C@H]1O [UM0119289, Kaempferol-7-Neohesperidoside] |  | 12.75% | 29.49% | 72.47% | 50.39% |  |
| COc1cc(OC)c2c(=O)c(-c3ccc4c(c3)OCO4)coc2c1 [UM0121218, Derrustone] | 83.90% | 21.91% | 25.53% | 58.63% | 53.68% |  |
| CC(C)=CCOc1cc2oc(=O)ccc2cc1O [UM0120947, Prenyletin] | 81.10% | 18.10% | 15.58% | 56.71% | 60.33% |  |
| COc1cc(-c2oc3cc(O)ccc3c(=O)c2O)ccc1O [UM0119468, Geraldol] | 78.50% | 25.29% | −41.47% | −23.14% | 64.06% |  |
| COC(=O)/C(C)=C\CC12OC(C)(C)C3CC(C=C4C(=O)c5c(OC)c6c(c(CC=C(C)C)c5OC431)OC(C)(CCC=C(C)C)C=C6)C2=O (centres unmarked) [UM0120889, Dimethyl gambogate] |  | 47.72% | −50.44% | −48.79% | 52.62% |  |
| COc1cc(-c2ccc(N=Nc3ccc4c(S(=O)(=O)[O-])cc(S(=O)(=O)[O-])c(N)c4c3O)c(OC)c2)ccc1N=Nc1ccc2c(S(=O)(=O)[O-])cc(S(=O)(=O)[O-])c(N)c2c1O.[Na+].[Na+].[Na+].[Na+] [UM0118703, Chicago sky blue 6B] |  | 42.39% | 31.67% | 42.76% | 54.52% |  |

| Compound | percent gated cells (viability) | % increase CD34+ (%) | % increase CD34+ (cell counts) | % increase CD34+CD15− (cell counts) | % increase CD34+CD15− (%) | CD34+CD15− cell counts compared to DMSO |
| --- | --- | --- | --- | --- | --- | --- |
| O.O.O=c1c(O)c(-c2ccc(O)c(O)c2)oc2cc(O)cc(O)c12 [UM0118473, Quercetine dihydrate] |  | 15.71% | 6.69% | 69.64% | 83.29% |  |
| CC(C)=CCc1c(O)cc2oc(C)cc(=O)c2c1O [UM0121217, Peucenin] | 83.20% | 23.46% | 37.27% | 94.61% | 74.92% |  |
| N[C@@H]1C[C@H]1c1ccccc1.N[C@H]1C[C@@H]1c1ccccc1.O=S(=O)(O)O [UM0121497, Tranylcypromine sulfate] | 76.50% | 20.22% | −15.83% | 19.65% | 70.66% |  |
| Cc1cc(=O)oc2cc(O)c(O)cc12 [UM0120835, 4-Methylesculetin] | 84.90% | 22.85% | 18.23% | 104.34% | 111.64% |  |
| OC[C@@H]1CCCN2CCCC[C@H]12 [UM0119416, Lupinine] |  | 10.12% | 30.63% | 51.77% | 28.13% |  |
| COc1cc(OC)c2c(=O)cc(-c3ccccc3)oc2c1 [UM0121173, 5,7-Dimethoxyflavone] | 82.00% | 29.43% | 34.90% | 53.11% | 46.97% |  |
| O=c1c2ccccc2oc2ccc(O)cc12 [UM0121186, 2-Hydroxyxanthone] | 82.40% | 48.93% | 48.11% | 65.21% | 66.25% |  |
| CO[C@@H]1[C@H](OC(=O)/C=C/C=C/C=C/C=C/C(=O)O)CC[C@]2(CO2)[C@H]1[C@@]1(C)O[C@@H]1CC=C(C)C [UM0121512, Fumagillin] | 78.60% | 31.22% | −54.59% | −46.09% | 55.51% |  |
| CC(=O)c1ccc2c(c1)N(CCCN(C)C)c1ccccc1S2.O=C(O)/C=C\C(=O)O [UM0118758, Acetopromazine maleate salt] |  | −0.82% | −11.68% | 41.15% | 57.85% |  |
| O=c1c(O)c(-c2ccccc2)oc2cc(O)cc(O)c12 [UM0119448, Galangine] |  |  | −0.57% | 23.06% | 60.64% |  |
| COc1ccc2c(c1)[nH]c1c(C)nccc12.Cl [UM0118303, Harmine hydrochloride] | 78.60% | 8.79% | −17.08% | 38.52% | 81.33% |  |
| CCOC(=O)c1c(C)cc(O)c(C)c1O [UM0120789, Methylorsellinic acid ethyl ester] | 84.00% | 22.49% | 22.38% | 52.88% | 52.70% |  |
| COc1cc2c(cc1O)C[C@H]1c3c(cc(O)c(OC)c3-2)CCN1C [UM0118103, Boldine] | 87.00% | −3.69% | 10.21% | 50.97% | 31.10% |  |
| Oc1ccc(C=Cc2cc(O)cc(O)c2)cc1 [UM0118532, Resveratrol] | 78.00% | 22.62% | −14.19% | 12.57% | 60.46% |  |
| COc1ccc(C2CC(=O)c3ccc(OC)cc3O2)cc1 (centres unmarked) [UM0120851, Liquiritigenin dimethylether] | 81.20% | 34.97% | 31.66% | 59.21% | 63.25% |  |
| Nc1ccccc1C(=O)CC(N)C(=O)O (centres unmarked) [Kynurenine] |  |  |  |  |  | further reduced |
| COc1ccc(-c2cc(=O)c3ccccc3o2)cc1 [UM0070201, 4′-Methoxyflavone] | 78.10% | 28.71% | 20.27% | 58.22% | 69.03% |  |

From patent US9757378B2, “Methods to modulate acute myeloid leukemia stem/progenitor cell expansion and/or differentiation” (UNIVERSITE DE MONTREAL, priority 2013, dated 2017)
